“And” between values parts separate entries of the source, which are not always exact repeats. Equal values may be shown once. Read-outs that look alike come from different tables or passages of the source.
Legend:
[1] = tested on: P. falciparum stage V gametocytes; test: Gametocytocidal ATP bioluminescence assay (single point 5 μM and 1 μM, dose-response); format: cell-based, Plasmodium falciparum; conditions: for Ratio IC50 HepG2/IC50 P. falciparum: IC50 HepG2 divided by IC50 P. falciparum gametocytes
Method: Purified stage IV-V gametocytes were obtained as previously described [10]. Single point ATP bioluminescence assay and dose–response of positive hits was determined in accordance with the previously published protocol [10].

[2] = tested on: P. falciparum asexual stages; conditions: asexual stages; TCAMS data; read-out: IC50 asexual; cited from earlier work
HepG2 cells = test: Cytotoxicity in HepG2 cells (intracellular ATP, ATPlite, 48 h); format: cell-based, human; conditions: HepG2 cells; IC50 per ratio column head; unit inferred
[3] = P. falciparum gametocytes, average, read-out: IC50 Pf Gametocytes average, IC50 (µM) average
[4] = sexual stages (gametocytes), dose-response, read-out: IC50 sexual

SMILES	Ratio IC50 HepG2/IC50 P. falciparum [1]	IC50 [1, 3] [µM]	IC50 [2] [nM]	IC50 (HepG2 cells)	IC50 [1, 4] [µM]
Cc1ccc(C)c(NC(=O)CC2C(=O)N(c3ccccc3)C(=S)N2Cc2ccco2)c1 (stereo not shown) [TCMDC-124000]	>7.7	1.3	570	> 10000 nM	–
CCCCCCCn1c(=N)n(CC(O)c2ccc(Cl)c(Cl)c2)c2ccccc21 (stereo not shown) [TCMDC-124065]	3	2.02	782	6000 nM	–
CCCCOc1ccc(C(=O)C(CCC(CNC(C)(C)C)C(=O)c2ccc(OCCCC)cc2)CNC(C)(C)C)cc1 (stereo not shown) [TCMDC-124120]	10	0.3	1020	3100 nM	–
CCCCCOc1ccc(C(O)C(CCC(CN2CCCCCC2)C(O)c2ccc(OCCCCC)cc2)CN2CCCCCC2)cc1 (stereo not shown) [TCMDC-124174]	5.67	1.2	768	6800 nM	–
Oc1c(CN2CCC(Cc3ccccc3)CC2)cc(Cl)c2cccnc12 [TCMDC-124594]	16	0.6	881	9600 nM	–
COc1ccc(C[C@H]2NC[C@H](O)[C@H]2OC(C)=O)cc1 [TCMDC-125504]	1.1	0.17	138	190 nM	0.173
COc1ccc(CCNCCCCCCNCCc2ccc(-c3ccccc3)cc2)cc1OC [TCMDC-131267]	19	0.17	958	3250 nM	0.173
COc1ccc(CCNCCCCCCNCCc2ccc(Cl)c3ccccc23)cc1OC [TCMDC-131270]	25	0.13	580	3230 nM	0.127
COc1ccc(CCNCCCCCCNCCc2ccc(Cl)cc2)c(Cl)c1OC [TCMDC-131272]	24	0.26	825	6200 nM	0.257
CCCCc1ccc(CCNCCCCCCNCCc2ccc(O)c(O)c2)cc1 [TCMDC-131281]	15	0.54	1070	8190 nM	0.545
COc1cccc(CCNCCCCCCNCCc2ccc(Cl)cc2)c1 [TCMDC-131284]	12	0.53	1010	6100 nM	–
CCN=C1NC2=C(CC(C(C)(C)C)CC2)C2(CCC(C(C)(C)C)CC2)S1 (stereo not shown) [TCMDC-131288]	5	3	834	14300 nM	–
CCC(CSC1CCCCC1)N(C)CCN(C)C(CC)CSC1CCCCC1 (stereo not shown) [TCMDC-131456]	0.621	1.4	314	870 nM	–
C[C@H](Cc1ccc(CCc2ccc(C[C@@H](C)NC[C@H](O)c3cccc(Cl)c3)cc2)cc1)NC[C@H](O)c1cccc(Cl)c1 [TCMDC-131551]	12	0.27	935	3100 nM	0.267
C[C@H](Cc1ccc(Oc2ccc(C[C@@H](C)NC[C@H](O)c3cccc(Cl)c3)cc2)cc1)NC[C@H](O)c1cccc(Cl)c1 [TCMDC-131560]	7	0.27	560	1910 nM	–
CCN(CC)/C(=N/C(=N)Nc1ccc(Cl)c(Cl)c1)NCCCCCCN/C(=N\C(=N)Nc1ccc(Cl)c(Cl)c1)N(CC)CC [TCMDC-131808]	>7	3.44	761	> 25000 nM	3.44
Nc1c2ccccc2nc2ccc(-c3ccccc3)cc12 [TCMDC-132030]	7	0.49	140	3300 nM	0.485
CCc1c(CCNCCCCCCNCCc2ccc(Br)cc2)ccc(OC)c1OC [TCMDC-132045]	15	0.22	232	3200 nM	0.215
CCc1c(CCNCCCCCCNCCc2ccc(OC)c(OC)c2C)ccc(OC)c1OC [TCMDC-132051]	10	0.77	1570	7750 nM	–
CCc1c(CCNCCCCCCNC(C)Cc2ccc3c(c2CC)OCO3)ccc(OC)c1OC (stereo not shown) [TCMDC-132052]	10	0.33	870	3100 nM	0.325
CCc1c(CCNCCCCCCNC(C)(C)Cc2ccc3c(c2CC)OCO3)ccc(OC)c1OC [TCMDC-132055]	16	0.27	934	4370 nM	0.266
CCc1c(CCNCCc2cccc(CCNCCc3ccc(OC)c(OC)c3CC)c2)ccc(OC)c1OC [TCMDC-132056]	7.47	0.55	361	4110 nM	–

SMILES	Ratio IC50 HepG2/IC50 P. falciparum [1]	IC50 [1, 3] [µM]	IC50 [2] [nM]	IC50 (HepG2 cells)	IC50 [1, 4] [µM]
CCc1c(CCNCCCC(C)CCNCCc2ccc(OC)c(OC)c2CC)ccc(OC)c1OC (stereo not shown) [TCMDC-132065]	13	0.45	1110	6000 nM	0.453
Nc1c(Cl)cc(C(O)CNCCCCCOCCCc2ccc(O)c3ncccc23)cc1Cl.O=C(O)/C=C/C(=O)O (stereo not shown) [TCMDC-132088]	10	0.45	992	4510 nM	0.455
COc1cccc(CCc2c(CCNCCCCCCNCCc3ccccc3)ccc(OC)c2OC)c1 [TCMDC-132105]	44	0.18	721	7700 nM	0.177
O=S(=O)(NCCN1CCCC1)c1cccc(-c2ccc(CNC3Cc4ccccc4C3)cc2)c1 [TCMDC-132241]	3.72	2.15	660	8000 nM	–
O=S(=O)(NCCN1CCCC1)c1cccc(-c2ccc(CNCc3ccc(F)cc3)cc2)c1 [TCMDC-132289]	2.75	2.69	234	7400 nM	–
CN1CCN(c2nsc3ccc(-c4ccc(NC(=O)Nc5cc(C(F)(F)F)ccc5F)cc4)cc23)CC1 [TCMDC-133435]	0.851	7.52	245	6400 nM	–
O=C(Nc1ccc(Cl)c(Cl)c1)Nc1ccccc1N1CCNCC1 [TCMDC-133727]	1.51	7.42	709	11200 nM	–
CN1CCCc2cc(NC(=O)C=Cc3ccc(-c4ccc(F)cc4F)o3)ccc2C1 [TCMDC-134051]	<1	> 10	783	13400 nM	–
COc1cccc(OC)c1CN1CCC(N(C)CCCCCCCCN2CCC(OC(=O)Nc3ccccc3-c3ccccc3)CC2)CC1 [TCMDC-134684]	3.29	1.04	458	3400 nM	1.03
COc1cccc(OC)c1CN1CCC(N(C)CCCCCCCCCN2CCC(OC(=O)Nc3ccccc3-c3ccccc3)CC2)CC1 [TCMDC-134690]	<6	0.26	319	< 1560 nM	0.255
Cc1cc(N[C@@H](Cc2ccccc2)C(=O)NCCc2ccccc2)nc(NCCc2ccccc2)n1 [TCMDC-134776]	<1	> 10	850	13600 nM	–
COc1ccccc1CCNc1nc(C)cc(N[C@@H](Cc2ccccc2)C(=O)NCCOc2ccccc2)n1 [TCMDC-134862]	<1	> 10	1210	11100 nM	–
COc1ccccc1CCNc1nc(C)cc(N[C@@H](Cc2ccccc2)C(=O)NCc2cccc(F)c2)n1 [TCMDC-134893]	1.19	5.3	867	6300 nM	–
CCn1c(Sc2ccc([N+](=O)[O-])c(C#N)c2)nnc1-c1cccc(Cl)c1 [TCMDC-135234]	>8	3.04	873	> 25000 nM	–
CCn1c(-c2nonc2N)nc2c(-c3cc4ccccc4s3)ncc(C(=O)N3CCC(N)C3)c21 (stereo not shown) [TCMDC-135281]	10	0.35	871	3500 nM	–
COc1cc2ccccc2cc1OCCCN1CCN(CC(c2ccc(F)cc2)N2CCN(C(C)C)CC2)CC1 (stereo not shown) [TCMDC-135496]	3	1.25	749	3720 nM	1.25
CC(C)(C)N1CCC(N(Cc2ccc(-c3ccc(C(F)(F)F)cc3)cc2)C(=O)Cn2c(CCc3cccc(F)c3F)cc(=O)c3cccnc32)CC1 [TCMDC-136011]	1.3	2.39	705	3100 nM	–
CCn1c(-c2nonc2N)nc2c(-c3cccc(NC(=O)Nc4ccccc4OC)c3)ncc(OCCCN)c21 [TCMDC-136190]	14	0.44	1000	5900 nM	0.435
CCCCOc1ccc(CNCCCCCCNCc2ccc(OCCCC)c3ccccc23)c2ccccc12 [TCMDC-137281]	–	–	1130	3040 nM and 2800 nM	–
CCCCCOc1ccc(C(=NC)N(CCCCC)CCCCC)c2ccccc12 [TCMDC-137703]	7	0.89	–	6300 nM	0.885
C=CC(C)C1OC(=O)c2cc(OC)cc(OC)c21 (stereo not shown) [TCMDC-138676]	2	0.4	–	800 nM	–
